# Measured values reported in EP3791884A1, “COMBINATION OF HEPARIN AND MAGNESIUM SALT FOR THE TREATMENT OF VIRAL INFECTIONS” (Bunz, Oskar, priority 2019, dated 2021).
# Read-outs that look alike come from different tables or passages of the source.
# Experiments:
# [1] = test system: several types of adenovirus; details: cited from earlier work
# [2] = test system: adenovirus type 5; assay: Zinc test series: antiviral effect, adenovirus type 5; assay type: cell-based
# Description: (§1) The inventors have also used zinc for some test series (not described in the Examples section). […] Furthermore, the antiviral effect of zinc was not apparent for all adenoviruses tested. An antiviral effect of zinc was detectable only for adenovirus type 5.
# [3] = Zinc test series: cytotoxic effect (not described in the Examples); assay type: cell-based
# Description: as §1
# [4] = test system: Adenovirus type 10; assay: Zinc test series: antiviral effect, adenovirus type 10; assay type: cell-based
# Description: as §1
# [5] = test system: human adenovirus type 5 (HAdV5); details: solely MgCl2, with 25 µmol MgCl2, HAdV5 1000 vpc, CHO-K1 cells
# [6] = test system: HAdV10
# [7] = test system: H9N2; details: MDCKII cells, H9N2 MOI 0,1, Heparin 5 I.U. per well and/or MgCl2 5 µmol per well
# [8] = test system: HAdV5; details: HeLa cells, HAdV5 1000 vpc, heparin 5 I.U. per well and/or MgCl2 5 µmol per well 4 hrs prior to infection, 26 hrs post infection
# [9] = test system: HAdV5
# [10] = in vivo; cited from earlier work
smiles,measurement,setting,value
NC(=O)c1ncn([C@@H]2O[C@H](CO)[C@@H](O)[C@H]2O)n1 [Ribavirin],antiviral activity against HAdV species C,[1]; in vitro,antiviral activity
same,"antiviral activity against species A, B, D",[1]; in vitro,limited activation
Nc1nc(O)c2ncn(COC(CO)CO)c2n1 [Ganciclovir],efficiency against adenovirus,[1],not against adenovirus
same,half-maximal effective concentration (EC50),"[1]; in vitro, relative to plasma",three times higher than in plasma
[Zn] [zinc],antiviral effect,[2],detectable
same,cytotoxic effect,[3],very strong cytotoxic effect
same,infection efficiencies in cells treated with zinc,[4],increased infection efficiencies
"[Cl-].[Cl-].[Mg+2] [MgCl2, magnesium chloride]",luciferase values,[5],40%
same,luciferase expression levels,[6]; only MgCl2 and virus,12%
same,luciferase expression levels,[6]; only applying virus and MgCl2,10%
same,infected cells (immunofluorescence),[7],slight decrease
same,median fluorescent intensity (MFI),[8],41%
same,luciferase expression levels,"[9]; only MgCl2 and virus, compared to untreated cells solely infected with virus",7%
same,luciferase expression levels,[9]; only applying virus and MgCl2,about 32%
Nc1ccn(C[C@@H](CO)OCP(=O)(O)O)c(=O)n1 [Cidofovir],toxicity,[10],nephrotoxic
